Activity calls are given as the source filed them. How the calls were made is not given here.
The compounds below were run against Sphingosine 1-phosphate receptor 3 (Homo sapiens) (UniProt Q99500) (assay: blockers of human S1PR3 signaling – cell-based, fluorescence, dose response, late-stage follow-up (AID 743434)). Settings: S1P3-expressing cells, fluorescence antagonist assay.
Chain of Sphingosine 1-phosphate receptor 3 (Homo sapiens) (Q99500 whole entry, looked up): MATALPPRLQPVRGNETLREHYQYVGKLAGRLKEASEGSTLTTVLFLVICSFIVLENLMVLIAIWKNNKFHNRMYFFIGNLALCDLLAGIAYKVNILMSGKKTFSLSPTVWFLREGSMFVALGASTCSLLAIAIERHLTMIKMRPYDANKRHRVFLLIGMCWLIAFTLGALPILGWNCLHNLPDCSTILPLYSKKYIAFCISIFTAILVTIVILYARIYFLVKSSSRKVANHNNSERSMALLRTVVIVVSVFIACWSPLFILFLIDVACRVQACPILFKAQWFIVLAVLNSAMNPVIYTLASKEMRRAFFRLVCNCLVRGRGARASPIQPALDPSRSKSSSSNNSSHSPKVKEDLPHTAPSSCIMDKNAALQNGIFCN

Row | IC50 | Structure (SMILES)
1 | 2900 nM | O=C(NC(c1ccc(Cl)cc1)c1nc(-c2ccccn2)no1)c1cccc(Cl)c1 (stereo not drawn)
2 | 320 nM | N#Cc1ccc(C(=O)NC(c2ccc(Cl)c(Cl)c2)c2nc(-c3ccccc3)no2)cc1 (stereo not drawn)
3 | 33 nM | O=C(NC(c1cccc(Cl)c1)c1nc(-c2ccccc2)no1)c1cc(Cl)cc(Cl)c1 (stereo not drawn)
4 | 214 nM | O=C(NC(c1ccc(Cl)cc1)c1nc(-c2ccccc2)no1)c1cccc(Cl)c1 (stereo not drawn)
5 | 390 nM | O=C(NC(c1ccc(Cl)cc1)c1nc(-c2ccccc2)no1)c1ccc(Cl)c(Br)c1 (stereo not drawn)
6 | 3300 nM | O=C(NC(c1nc(-c2ccccc2)no1)C1CCCCC1)c1ccc(Cl)c(Cl)c1 (stereo not drawn)
7 | inactive | COc1ccc(C(=O)NC(c2ccccc2)c2nc(-c3ccccc3)no2)cc1 (stereo not drawn)
8 | 5700 nM | O=C(NC(Cc1ccccc1)c1nc(-c2ccccc2)no1)c1cccc(Cl)c1 (stereo not drawn)
9 | 53 nM | O=C(NC(c1ccc(Cl)c(Cl)c1)c1nc(-c2ccccc2)no1)c1cccc(Cl)c1 (stereo not drawn)
10 | inactive | Cc1ccc(C(=O)NC(c2ccccc2)c2nc(-c3ccccc3)no2)cc1 (stereo not drawn)
11 | 76 nM | O=C(NC(c1ccc(Cl)c(Cl)c1)c1nc(-c2ccccc2)no1)c1ccc(Cl)cc1 (stereo not drawn)
12 | inactive | O=C(c1cccc(Cl)c1)N(CCO)C(c1ccc(Cl)c(Cl)c1)c1nc(-c2ccccc2)no1 (stereo not drawn)
13 | 66 nM | O=C(NC(c1ccc(Cl)c(Cl)c1)c1nc(-c2ccccc2)no1)c1ccc(Cl)c(Cl)c1 (stereo not drawn)
14 | 2800 nM | O=C(NC(c1nc(-c2ccccc2)no1)C1CCOCC1)c1ccc(Cl)c(Cl)c1 (stereo not drawn)
15 | 2400 nM | O=C(NC(c1ccccc1)c1nc(-c2ccccc2)no1)c1ccc(Cl)cc1 (stereo not drawn)
16 | 1100 nM | O=C(NC(c1ccc(Cl)cc1)c1nc(-c2cccc(Cl)c2)no1)c1cccc(Cl)c1 (stereo not drawn)
17 | 214 nM | O=C(NC(c1ccc(Br)cc1)c1nc(-c2ccccc2)no1)c1ccc(Cl)c(Cl)c1 (stereo not drawn)
18 | 2800 nM | O=C(NC(c1ccccc1)c1nc(-c2ccccc2)no1)c1cccc(Cl)n1 (stereo not drawn)
